Here are results for 16 compounds from patent publication US11111259B2, “Acylsulfonamide derivatives for treating senescence-associated diseases and disorders” (Unity Biotechnology, Inc., priority 2015, dated 2021).

For orientation: Kd means the equilibrium constant for the complex coming apart. A lower Kd goes with tighter binding. One may read the EC50 as the midpoint of the concentration-response curve. Low readings indicate a more potent agent, high ones a less potent agent.

One test has as its target BCL-xL (Homo sapiens, UniProt Q07817). The experiment in a line: BCL-binding assay (AlphaLISA competition, BAD peptide). The note with it: 6xHis BCL-xL with biotinylated BAD peptide, 24 hr incubation. The procedure: (§1) Compounds were prepared as 400× DMSO stock solutions in a 1:4 dilution series then diluted […] in assay buffer (25 mM HEPES pH 7.5, 100 mM NaCl, 0.1% BSA, 0.005% Tween) immediately before use. Aliquots of 400 nM 6xHis-tagged BCL-xL, BCL-2, and BCL-w were thawed on ice and diluted to 0.4 (BCL-XL) or 0.8 (BCL-W and 2) nM in assay buffer. Aliquots of biotinylated BIM and BAD peptides were diluted in assay buffer to 120 and 60 nM respectively. Ten microliters of biotinylated peptide were added to wells of a 96-well PCR plate, followed by ten microliters of inhibitor, then ten microliters of BCL protein, BCL-XL with BAD and BCL-W/2 with BIM. The plates were sealed and incubated at room temperature. After 24 hr, 0.16 μg Anti-His conjugated AlphaLISA acceptor beads were added in 5 μL assay buffer. After one hour at room temperature, 0.16 μg AlphaScreen streptavidin donor beads were added in 5 μL assay buffer and plates were incubated an additional 30 min in the dark. Two 17 μL aliquots of each reaction were plated in a Perkin Elmer 384-well proxiplate, and plates were scanned for using a Perkin Elmer Enspire plate reader. Kd values were calculated in Prism Graph Pad using a one site competitive binding model and previously determined Kd values for each protein peptide pair. […]
Background: Bead proximity is the source of the signal in Alpha formats.

The target in another test is BCL-2 (Homo sapiens, UniProt P10415). The experiment in a line: BCL-binding assay (AlphaLISA competition, BIM peptide). Particulars: 6xHis BCL-2 with biotinylated BIM peptide, 24 hr incubation. The procedure:
as §1

The target of a further test is T1, BCL-w (Homo sapiens, UniProt Q92843).
T1 sequence (Q92843 1-193): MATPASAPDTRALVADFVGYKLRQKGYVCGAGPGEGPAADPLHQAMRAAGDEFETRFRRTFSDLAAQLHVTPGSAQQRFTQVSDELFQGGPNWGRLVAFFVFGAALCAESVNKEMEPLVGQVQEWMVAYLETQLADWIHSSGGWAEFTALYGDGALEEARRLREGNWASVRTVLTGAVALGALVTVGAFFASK
The description is as above. The note with it: 6xHis BCL-w with biotinylated BIM peptide, 24 hr incubation. The procedure: as §1

For test [1], the system named is IMR-90 SnC (irradiated senescent IMR90 cells). The experiment in a line: Senolysis assay (CellTiter-Glo viability). The test is classed as cell-based, human. The note with it: for EC50: Homo sapiens, IMR-90, light or radiation study, 72 h, X-ray irradiated senescent IMR90 cells, viability three days after compound addition; for SI (ratio of EC50 of non-senescent cells to EC50 of senescent cells): IMR90 non-senescent vs senescent cells. As to the method: IMR90 cells are maintained in DMEM supplemented with 10% FBS. To prepare a senescent population, cells were trypsinized, diluted to 50,000 per mL, and irradiated with 10-15 Gy of X-ray irradiation. Irradiated cells were plated at 5000 cells per well in one third of a 96-well plate and maintained for two weeks prior to the assay. Four days prior to the assay, non-senescent IMR90s were plated at 2500 per well in the second third of the plate. One day prior to the assay, 2500 non-senescent cells were plated in the final third of the plate. Compounds were prepared as a 200×DMSO dilution series then diluted to 1× in media immediately before adding to cells. Three days after compound addition, cell viability was measured using CellTiter-Glo reagent from Promega. Viability was calculated relative to a DMSO control and EC50 values are calculated in Prism GraphPad. […] The selectivity (SI) of the compounds described herein is a ratio of the EC50 of non-senescent cells to the EC50 of senescent cells. The SI of the compounds described herein is 10 or above for “A” selectivity, between 2 and 10 for “B” selectivity or 2 or less for “C” selectivity.
(Cellular ATP, detected with luciferase, serves as a proxy for viable cell number.)

Structures are written as SMILES.

Chain of BCL-xL (Q07817 whole entry, species assumed): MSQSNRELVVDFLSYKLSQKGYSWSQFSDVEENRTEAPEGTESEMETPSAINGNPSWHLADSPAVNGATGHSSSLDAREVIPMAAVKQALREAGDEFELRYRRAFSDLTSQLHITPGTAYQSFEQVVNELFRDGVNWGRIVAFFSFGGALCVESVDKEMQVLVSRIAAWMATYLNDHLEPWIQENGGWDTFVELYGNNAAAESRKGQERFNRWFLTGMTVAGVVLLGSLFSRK
Chain of BCL-2 (P10415 whole entry, species assumed): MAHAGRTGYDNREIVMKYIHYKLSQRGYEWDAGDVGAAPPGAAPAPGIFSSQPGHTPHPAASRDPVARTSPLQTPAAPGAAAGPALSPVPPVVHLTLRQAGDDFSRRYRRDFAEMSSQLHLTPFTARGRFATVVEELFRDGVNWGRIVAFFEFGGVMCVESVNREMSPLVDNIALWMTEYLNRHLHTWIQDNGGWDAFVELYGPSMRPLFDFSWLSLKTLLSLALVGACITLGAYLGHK

In the case of `CCOP(=O)(CN1CCN(CC[C@H](CSc2ccccc2)Nc2ccc(S(=O)(=O)NC(=O)c3ccc(N4CCN(CC5=C(c6ccc(Cl)cc6)CCC(C)(C)C5)CC4)cc3)cc2S(=O)(=O)C(F)(F)F)CC1)OCC` [Compound 6], the dissociation constant Kd on BCL-xL is less than 1 nM; at BCL-2, less than 1 nM; on BCL-w it was 1 to 10 nM. Moreover, the concentration for a half-maximal effect (EC50) in test [1] is less than 1000 nM. Also, the “SI (ratio of EC50 of non-senescent cells to EC50 of senescent cells)” value in test [1] was “A (10 or above)”.

On to `CC1(C)CCC(c2ccc(Cl)cc2)=C(CN2CCN(c3ccc(C(=O)NS(=O)(=O)c4ccc(N[C@H](CCN5CCN(CP(=O)(O)O)CC5)CSc5ccccc5)c(S(=O)(=O)C(F)(F)F)c4)cc3)CC2)C1` [Compound 7], for which the Kd on BCL-xL is less than 1 nM; on BCL-2 it was less than 1 nM; on BCL-w it was 10 to 50 nM. Also, the EC50 in test [1] was more than 10000 nM. Also, the “SI (ratio of EC50 of non-senescent cells to EC50 of senescent cells)” value in test [1] was “B (between 2 and 10)”.

`CCOP(=O)(CCN1CCN(CC[C@H](CSc2ccccc2)Nc2ccc(S(=O)(=O)NC(=O)c3ccc(N4CCN(CC5=C(c6ccc(Cl)cc6)CCC(C)(C)C5)CC4)cc3)cc2S(=O)(=O)C(F)(F)F)CC1)OCC` [Compound 9]: the Kd is less than 1 nM on BCL-xL, less than 1 nM at BCL-2 and 1 to 10 nM at BCL-w. The compound further came in with a half-maximal effective concentration (EC50) in test [1] of less than 1000 nM. For the same compound, the “SI (ratio of EC50 of non-senescent cells to EC50 of senescent cells)” value in test [1] is listed as “A (10 or above)”.

Regarding `CCOP(=O)(CCN(C)CC[C@H](CSc1ccccc1)Nc1ccc(S(=O)(=O)NC(=O)c2ccc(N3CCN(CC4=C(c5ccc(Cl)cc5)CCC(C)(C)C4)CC3)cc2)cc1S(=O)(=O)C(F)(F)F)OCC` [Compound 10], the Kd is less than 1 nM on BCL-xL, less than 1 nM at BCL-2 and 1 to 10 nM on BCL-w. In test [1], this compound yielded an EC50 of 1000 to 10000 nM. Also, the “SI (ratio of EC50 of non-senescent cells to EC50 of senescent cells)” value in test [1] was “A (10 or above)”.

For `CCOP(=O)(O)CCN(C)CC[C@H](CSc1ccccc1)Nc1ccc(S(=O)(=O)NC(=O)c2ccc(N3CCN(CC4=C(c5ccc(Cl)cc5)CCC(C)(C)C4)CC3)cc2)cc1S(=O)(=O)C(F)(F)F` [Compound 11], the Kd on BCL-xL was less than 1 nM; at BCL-2, less than 1 nM; on BCL-w, 1 to 10 nM. In addition, the EC50 in test [1] is more than 10000 nM. Besides, the “SI (ratio of EC50 of non-senescent cells to EC50 of senescent cells)” value in test [1] is “C (2 or less)”.

As for `CN(CC[C@H](CSc1ccccc1)Nc1ccc(S(=O)(=O)NC(=O)c2ccc(N3CCN(CC4=C(c5ccc(Cl)cc5)CCC(C)(C)C4)CC3)cc2)cc1S(=O)(=O)C(F)(F)F)CCP(=O)(O)O` [Compound 12], the Kd was less than 1 nM at BCL-xL, less than 1 nM at BCL-2 and 10 to 50 nM at BCL-w. This compound returned an EC50 in test [1] of more than 10000 nM.

Turning to `CC1(C)CCC(c2ccc(Cl)cc2)=C(CN2CCN(c3ccc(C(=O)NS(=O)(=O)c4ccc(N[C@H](CCN5CCN(CCP(=O)(O)O)CC5)CSc5ccccc5)c(S(=O)(=O)C(F)(F)F)c4)cc3)CC2)C1` [Compound 13], the equilibrium dissociation constant (Kd) was less than 1 nM on BCL-xL, less than 1 nM on BCL-2 and 1 to 10 nM at BCL-w. Moreover, the EC50 in test [1] was more than 10000 nM.

On to `CCOP(=O)(O)CCN1CCN(CC[C@H](CSc2ccccc2)Nc2ccc(S(=O)(=O)NC(=O)c3ccc(N4CCN(CC5=C(c6ccc(Cl)cc6)CCC(C)(C)C5)CC4)cc3)cc2S(=O)(=O)C(F)(F)F)CC1` [Compound 14], for which the results for the Kd on BCL-xL, on BCL-2 and on BCL-w were less than 1 nM, less than 1 nM and 1 to 10 nM, respectively. For the same compound, in test [1], the EC50 is more than 10000 nM.

For the compound `CC(C)OP(=O)(CN1CCN(CC[C@H](CSc2ccccc2)Nc2ccc(S(=O)(=O)NC(=O)c3ccc(N4CCN(CC5=C(c6ccc(Cl)cc6)CCC(C)(C)C5)CC4)cc3)cc2S(=O)(=O)C(F)(F)F)CC1)OC(C)C` [Compound 15], the results for the Kd at BCL-xL, on BCL-2 and on BCL-w were less than 1 nM, less than 1 nM and 10 to 50 nM, respectively. The EC50 in test [1] lay in the range of 1000 to 10000 nM. The “SI (ratio of EC50 of non-senescent cells to EC50 of senescent cells)” value in test [1] is “B (between 2 and 10)”.

`COP(=O)(CN1CCN(CC[C@H](CSc2ccccc2)Nc2ccc(S(=O)(=O)NC(=O)c3ccc(N4CCN(CC5=C(c6ccc(Cl)cc6)CCC(C)(C)C5)CC4)cc3)cc2S(=O)(=O)C(F)(F)F)CC1)OC` [Compound 16]: the Kd at BCL-xL is less than 1 nM; at BCL-2, less than 1 nM; at BCL-w it was 1 to 10 nM. In test [1], the EC50 is less than 1000 nM. The “SI (ratio of EC50 of non-senescent cells to EC50 of senescent cells)” value in test [1] was “A (10 or above)”.

Take `CCOP(=O)(CCCN1CCN(CC[C@H](CSc2ccccc2)Nc2ccc(S(=O)(=O)NC(=O)c3ccc(N4CCN(CC5=C(c6ccc(Cl)cc6)CCC(C)(C)C5)CC4)cc3)cc2S(=O)(=O)C(F)(F)F)CC1)OCC` [Compound 23]: the dissociation constant Kd at BCL-xL was less than 1 nM; on BCL-2, less than 1 nM; at BCL-w it was 1 to 10 nM. The compound also returned an EC50 in test [1] of less than 1000 nM. For the same compound, the “SI (ratio of EC50 of non-senescent cells to EC50 of senescent cells)” value in test [1] was “A (10 or above)”.

For `COP(=O)(CCCN1CCN(CC[C@H](CSc2ccccc2)Nc2ccc(S(=O)(=O)NC(=O)c3ccc(N4CCN(CC5=C(c6ccc(Cl)cc6)CCC(C)(C)C5)CC4)cc3)cc2S(=O)(=O)C(F)(F)F)CC1)OC` [Compound 24], the Kd on BCL-xL is less than 1 nM; on BCL-2, less than 1 nM; on BCL-w, 1 to 10 nM. This compound displayed an EC50 in test [1] of less than 1000 nM. Moreover, in test [1], the “SI (ratio of EC50 of non-senescent cells to EC50 of senescent cells)” value is given as “A (10 or above)”.

Turning to `CC1(C)CCC(c2ccc(Cl)cc2)=C(CN2CCN(c3ccc(C(=O)NS(=O)(=O)c4ccc(N[C@H](CCN5CCN(CCCP(=O)(Oc6ccccc6)Oc6ccccc6)CC5)CSc5ccccc5)c(S(=O)(=O)C(F)(F)F)c4)cc3)CC2)C1` [Compound 25], the Kd on BCL-xL is 1 to 10 nM; on BCL-2, less than 1 nM; at BCL-w, more than 50 nM. In test [1], this compound returned an EC50 of more than 10000 nM. Besides, the “SI (ratio of EC50 of non-senescent cells to EC50 of senescent cells)” value in test [1] is listed as “C (2 or less)”.

Consider `CCOP(=O)(CN1CCN(CC[C@H](CSc2ccccc2)Nc2ccc(S(=O)(=O)NC(=O)c3ccc(N4CCN(CC5=C(c6ccc(Cl)cc6)CCC(C)(C)C5)CC4)cc3)cc2S(=O)(=O)C(F)(F)F)CC1)OC(C)(C)C` (some centres unmarked) [Compound 26], for which the Kd at BCL-xL is 10 to 50 nM; on BCL-2, more than 50 nM; on BCL-w, more than 50 nM. In test [1], the EC50 is more than 10000 nM.

Regarding `CC(C)OP(=O)(CCCN1CCN(CC[C@H](CSc2ccccc2)Nc2ccc(S(=O)(=O)NC(=O)c3ccc(N4CCN(CC5=C(c6ccc(Cl)cc6)CCC(C)(C)C5)CC4)cc3)cc2S(=O)(=O)C(F)(F)F)CC1)OC(C)C` [Compound 27], the results for the dissociation constant Kd at BCL-xL, on BCL-2 and on BCL-w were less than 1 nM, less than 1 nM and 1 to 10 nM, respectively. The EC50 in test [1] is more than 10000 nM. Also, in test [1], the “SI (ratio of EC50 of non-senescent cells to EC50 of senescent cells)” value is recorded as “C (2 or less)”.

As to `CCOP(=O)(O)CC1CCN(CC[C@H](CSc2ccccc2)Nc2ccc(S(=O)(=O)NC(=O)c3ccc(N4CCN(CC5=C(c6ccc(Cl)cc6)CCC(C)(C)C5)CC4)cc3)cc2S(=O)(=O)C(F)(F)F)CC1` [Compound 49, Ethylhydrogen((1-((R)-3-((4-(N-(4-(4-((4′-chloro-4,4-dimethyl-3,4,5,6-tetrahydro-[1,1′-biphenyl]-2-yl)methyl)piperazin-1-yl)benzoyl)sulfamoyl)-2-((trifluoromethyl)sulfonyl)phenyl)amino)-4-(phenylthio)butyl)piperidin-4-yl)methyl)phosphonate], the Kd at BCL-xL is less than 1 nM; at BCL-2 it was less than 1 nM; at BCL-w it was 1 to 10 nM.
